Data on 16 substances can be found in US6716968B2, “Apoptosis-related compounds and their use” (Peviva AB, priority 1997, dated 2004).

Ends that are not written are not given here.

One test deals with monoclonal antibody M30. The test is described as follows: ELISA reactivity of synthetic peptides with monoclonal antibody M30. It is filed as binding, mouse. The note with it: SEQ ID NO: 1 set at 100. An excerpt:
These peptides having the amino acid sequences SEQ ID NO: 2 and 3 have been synthesized, and in an ELISA they bind to the mAb M 30 [relative activity: 100 for SEQ ID NO: 1; 11 for SEQ ID NO: 2; and 8.3 for SEQ ID NO: 3, respectively]. However, these two peptides are not expected to represent cleaved fragments of CK18 specific for apoptosis, since the mAb M 30 cannot bind to CK18 fragments until they expose the neo-epitope having the C-terminal sequence Ala Leu Asp.
The oligopeptides made in order to illustrate the invention were synthesized using the multipin peptide synthesis approach using polyethylene supports derivatized with an acid handle (Cf. Valerio, R. M., Bray, A. M. and Maeji, N. J. (1994) Multiple peptide synthesis on acid-labile handle derivatized polyethylene supports. Int. J. Peptide Protein Res. 44:158-165.). The synthesis was carried out on detachable pins grafted with hydroxyethylmethacrylate and functionalized with the trifluoroacetic acid-labile Rink amide forming handle. Peptides representing both the N and C terminal truncation series of the sequence EDFNLGDALD (SEQ ID NO:1) and other sequences were synthesized. Peptides were capped with biotin using the tetra peptide linker sequence—SGSG- or —SGSB- (B=βalanine), and attached to streptavidin coated plates in the enzyme-linked immunosorbent assay.
In order to characterize the MAb M30-epitope chemically, the M30was tested against a large number of synthetic peptides, that were especially made for this purpose.
Background: In an ELISA, binding on a coated surface is turned into a signal by an enzyme label.
Consider EDFNLGDALD [SEQ ID NO: 1], for which the “relative activity (binding to mAb M 30 in ELISA)” value is on record as 100.
The same measure, in the same setting: then EDGEDFNLGDALDSSNSMQT [SEQ ID NO: 2], with 11; and LEDGEDFNLGDALDSSNS [SEQ ID NO: 3], with 8.3.

Staying with this test, now noted: biotin-capped peptide attached to streptavidin coated plates, ELISA with MAb M30.
In the case of “DFNLGDALD (OTHER INFORMATION: Description of Artificial Sequence: epitope from mammalian protein) [Peptide 401]”, the “Absorbance at 405/492 nm” value turned out to be 0.62.
The same measure, in the same setting: with “DALD (OTHER INFORMATION: Description of Artificial Sequence: epitope from mammalian protein) [Peptide 406]” the figure was 0.1.
As for “EDFNLGDALD (OTHER INFORMATION: Description of Artificial Sequence: epitope from mammalian protein) [Peptide 301]”, the “Absorbance at 405/492 nm” value worked out at 1.46.
Still for that read-out and setting: with “EDGEDFNLGDALD (OTHER INFORMATION: Description of Artificial Sequence: epitope from mammalian protein) [Peptide 45]” the figure was 1.05; with “LEDGEDFNLGDAL (OTHER INFORMATION: Description of Artificial Sequence: epitope from mammalian protein) [Peptide 63]”, 0.05; with “DGEDFNLGDALD (OTHER INFORMATION: Description of Artificial Sequence: epitope from mammalian protein) [Peptide 46]”, 0.77.
Regarding “NLGDALD (OTHER INFORMATION: Description of Artificial Sequence: epitope from mammalian protein) [Peptide 403]”, the “Absorbance at 405/492 nm” value came out at 0.14.
Turning to “GEDFNLGDALD [47] (OTHER INFORMATION: Description of Artificial Sequence: epitope from mammalian protein) [Peptide 47]”, the “Absorbance at 405/492 nm” value turned out to be 1.23.
Still for that read-out and setting: then “GEDFNLGDALD [302] (OTHER INFORMATION: Description of Artificial Sequence: epitope from mammalian protein) [Peptide 302]”, with 1.41.
Still for that read-out and setting: with “LEDGEDFNLGDALDS (OTHER INFORMATION: Description of Artificial Sequence: epitope from mammalian protein) [Peptide 61]” the figure was 0.1.
Same read-out and setting: with “FNLGDALD (OTHER INFORMATION: Description of Artificial Sequence: epitope from mammalian protein) [Peptide 402]” the figure was 0.27; with “LGDALD (OTHER INFORMATION: Description of Artificial Sequence: epitope from mammalian protein) [Peptide 404]”, 0.1.
Take “GDALD (OTHER INFORMATION: Description of Artificial Sequence: epitope from mammalian protein) [Peptide 405]”: the “Absorbance at 405/492 nm” value worked out at 0.1.

The test is the same for the next values; noted with them: truncation series of Table 1.
On to EDFNLGDALD [SEQ ID NO: 1], for which the “activity (reactivity with MAb M30) in words” value was “maximal activity”.
